ChEMBL document CHEMBL5260811, “Drug development against tuberculosis: Impact of alkaloids” (Eur J Med Chem, 2017)

tested on: Mycobacterium tuberculosis; assay: Antimycobacterial activity against Mycobacterium tuberculosis H37Rv; format: functional; conditions: not given

Structure (SMILES) | MIC
Nc1nc(/C=C/CNC(=O)c2cc(Br)c[nH]2)c[nH]1 | 6.1 µg/mL
C=C[C@@]1(C)C(Cl)C[C@@H]2C(C)(C)c3cccc4[nH]c5c(c34)[C@@]2(O)[C@]1(C#N)[C@@]1(CO1)C5(C)C (some centres not stated) | 2 µM
O=C1C(c2ccc(O)cc2)=C(c2ccc(O)cc2)C(=O)N1CCc1ccc(O)cc1 | 16 µg/mL
C=C[C@@]1(C)[C@H](Cl)C[C@@H]2C(C)(C)c3cccc4[nH]c5c(c34)[C@@]2(O)[C@]1(C#N)C=CC5(C)C | 2.8 µg/mL
Nc1c(Br)cc(O)c(CC(=O)O)c1Br | 15.9 µg/mL
C=C1c2[nH]cc(Br)c2[C@H]2NC(N)=N[C@]23CCCN13 | 64 µg/mL
C=C[C@]1(C)C/C=C(/C#N)C(C)(C)c2[nH]c3cccc4c3c2C(=C)[C@H](CC1Cl)C4(C)C (some centres not stated) | 53.7 µM
CC1CCC(=NNC(=O)c2[nH]c3ccc(F)cc3c2-c2ccccc2)CC1 (configuration not stated) | 6.25 µg/mL
CCCC1CCC2(CC1)SCC(=O)N2NC(=O)c1[nH]c2ccc(F)cc2c1-c1ccccc1 (configuration not stated) | 6.25 µg/mL
COc1cc2c(cc1OC)C(CC(C)=O)N(C)c1c-2ccc2cc3c(cc12)OCO3 (configuration not stated) | 6.2 µg/mL

tested on: Mycobacterium tuberculosis; assay: Antimycobacterial activity against Mycobacterium tuberculosis; format: functional; conditions: not given

Structure (SMILES) | IC [µg/mL]
C/C=C/[C@H]1C=C[C@H]2[C@@H]3C[C@H](C)CC[C@H]3[C@@H]3Oc4ccc(cc4)C[C@@H]4C(=O)NC(=O)[C@H]4C(=O)[C@@H]1[C@H]23 | 3.125
C=C[C@H]1C=C[C@H]2[C@@H]3C[C@H](C)CC[C@H]3[C@@H]3Oc4ccc(cc4)C[C@]4(O)NC(=O)[C@]5(O[C@H]54)C(=O)[C@@H]1[C@H]23 | 0.78
C=C[C@H]1C=C[C@H]2[C@@H]3C[C@H](C)CC[C@H]3[C@@H]3Oc4ccc(cc4)C[C@@H]4C(=O)NC(=O)[C@H]4C(=O)[C@@H]1[C@H]23 | 0.78
C=C[C@H]1C=C[C@H]2[C@@H]3C[C@H](C)CC[C@H]3[C@@H]3Oc4ccc(cc4)C[C@@]4(O)C[C@H](C(=O)N4)C(=O)[C@@H]1[C@H]23 | 0.78
CO/N=c1\[n-]cnc2c1[n+](C/C=C(\C)CC/C=C(\C)CCC1=C(C)CCCC1(C)C)cn2C | 6.25
CC1=C(CC/C(C)=C/CC/C(C)=C/C[n+]2cn(C)c3nc[n-]/c(=N\OC(C)(C)C)c32)C(C)(C)CCC1 | 6.25

same assay, conditions: Mycobacterium tuberculosis

Structure (SMILES) | MIC
c1cc2c[n+](c1)CCCCCCCCCCCCc1ccc[n+](c1)CCCCCCCCCCC2 | 9.3 µg/mL
CCCC/C=C\CCCCc1cc(=O)c2ccccc2n1C | 2 µg/mL
Cn1c(=O)ccc2ccccc21 | 6.25 µg/mL
COC(=O)c1ccc2[nH]c3ccccc3c2c1 | 50 µg/mL
COc1c(O)c2c3c(c1OC)CCN[C@H]3Cc1cc3c(cc1-2)OCO3.Cl | 4 µg/mL
COc1ccc(CCC2CCc3ccccc3N2C)cc1OC (configuration not stated) | 6.25 µg/mL
COC(=O)N1CCc2c(OC)c(OC)c(O)c3c2[C@@H]1Cc1cc2c(cc1-3)OCO2 | 128 µg/mL
COc1c(O)c2c3c(c1OC)CCN[C@H]3Cc1cc3c(cc1-2)OCO3 | 64 µg/mL
CCCC/C=C\CCCCCCc1cc(=O)c2ccccc2n1C | 2 µg/mL
c1cc2c[n+](c1)CCCCCCCCCCCCCCc1ccc[n+](c1)CCCCCCCCCC2 | 5.3 µg/mL
CC(=O)NCCC1=C2Nc3ccccc3C3C=CN=C(C4=C1SCO4)C23 (configuration not stated) | 17 µM
CCCCC/C=C\C/C=C\CCCCc1cc(=O)c2ccccc2n1C | 2 µg/mL
O=C(NN1C(=O)C(Cl)C1c1ccc(Cl)cc1)c1cc(O)c(O)c(O)c1 (configuration not stated) | 0.83 µg/mL
CC(=O)NCCC1C2=C3C(=NC=CC3c3ccccc3N2)C2=C1SCC(=O)N2 (configuration not stated) | 32 µM
CC(=O)NCCC1C2=C3C(=NC=CC3c3ccccc3N2)c2ncsc21 (configuration not stated) | 34 µM
c1cc2c[n+](c1)CCCCCCCCCCCCCCc1ccc[n+](c1)CCCCCCCCCCC2 | 4.6 µg/mL
CCCCC/C=C\C/C=C\CCc1cc(=O)c2ccccc2n1C | 2 µg/mL
O=C(NN1C(=O)C(Cl)C1c1cccc(Cl)c1)c1cc(O)c(O)c(O)c1 (configuration not stated) | 0.57 µg/mL
CCCCCCCCCCCc1cc(=O)c2ccccc2n1C | 2 µg/mL
CN(C)c1ccc(C2C(Cl)C(=O)N2NC(=O)c2cc(O)c(O)c(O)c2)cc1 (configuration not stated) | 0.62 µg/mL
c1cc2c[n+](c1)CCCCCCCCCCCCc1ccc[n+](c1)CCCCCCCCCC2 | 4.6 µg/mL

Structure (SMILES) | MIC
c1cc2c[n+](c1)CCCCCCCCCCCCCc1ccc[n+](c1)CCCCCCCCCC2 | 6.6 µg/mL
O=C(NN1C(=O)C(Cl)C1c1ccccc1Cl)c1cc(O)c(O)c(O)c1 (configuration not stated) | 0.76 µg/mL
[C-]#[N+][C@]12[C@H]3O[C@H]3C(C)(C)c3[nH]c4cccc5c4c3[C@]1(O)[C@H](CC[C@]2(C)C=C)C5(C)C | 13.1 µM
[C-]#[N+][C@@H]1[C@@H]2c3c(C(C)(C)C=C)[nH]c4cccc(c34)C(C)(C)[C@H]2C[C@@H](Cl)[C@]1(C)C=C [AMBIGUINE A ISONITRILE] | 46.7 µM
[C-]#[N+][C@@H]1[C@]2(O)c3c(C(C)(C)C=C)[nH]c4cccc(c34)C(C)(C)[C@H]2CC[C@]1(C)C=C [AMBIGUINE C ISONITRILE] | 7 µM
[C-]#[N+][C@]12[C@H]3O[C@H]3C(C)(C)c3[nH]c4cccc5c4c3[C@]1(O)[C@H](C[C@@H](Cl)[C@]2(C)C=C)C5(C)C [AMBIGUINE E ISONITRILE] | 21 µM
[C-]#[N+][C@]12C=CC(C)(C)c3[nH]c4cccc5c4c3[C@]1(O)[C@H](CC[C@]2(C)C=C)C5(C)C [AMBIGUINE L ISONITRILE] | 4.5 µg/mL
[C-]#[N+][C@]12C[C@@H](O)C(C)(C)c3[nH]c4cccc5c4c3[C@]1(O)[C@H](C[C@@H](Cl)[C@]2(C)C=C)C5(C)C [AMBIGUINE M ISONITRILE] | 3.3 µg/mL
[C-]#[N+][C@]12C[C@@H](O)C(C)(C)c3[nH]c4cccc5c4c3[C@]1(O)[C@H](CC[C@]2(C)C=C)C5(C)C [AMBIGUINE N ISONITRILE] | 10.9 µg/mL
Nc1c(Br)cc(Br)cc1CN[C@H]1CC[C@H](O)CC1 [AMBROXOL] | 6 µg/mL
CN(Cc1cc(Br)cc(Br)c1N)C1CCCCC1 [BROMHEXINE] | 6 µg/mL
COc1ccc2c(c[n+](C)c3c4cc5c(cc4ccc23)OCO5)c1OC.[Cl-] [CHELERYTHRINE CHLORIDE] | 14.3 µg/mL
COc1ccc2c(c1)[nH]c1cc(OC)c(C(=O)O)cc12 [CLAUSINE K] | 100 µg/mL
C=CC(C)(C)c1[nH]c2c(CC=C(C)C)cc(CC=C(C)C)cc2c1C[C@@H]1NC(=O)[C@H](C)NC1=O [ECHINULIN] | 170 µg/mL
[C-]#[N+][C@@H]1[C@@H]2c3c[nH]c4cccc(c34)C(C)(C)[C@H]2C[C@@H](Cl)[C@]1(C)C=C [HAPALINDOLE G] | 6.8 µM
[C-]#[N+][C@@H]1[C@H]2c3c[nH]c4cccc(c34)C(C)(C)[C@@H]2CC[C@]1(C)C=C [HAPALINDOLE H] | 58.8 µM
O=[N+]([O-])c1cn2c(n1)OC[C@@H](OCc1ccc(OC(F)(F)F)cc1)C2 [PRETOMANID] | 0.015 µg/mL
CO[C@H]1/C=C/O[C@@]2(C)Oc3c(C)c(O)c4c(O)c(c(/C=N/N5CCN(C6CCCC6)CC5)c(O)c4c3C2=O)NC(=O)/C(C)=C\C=C\[C@H](C)[C@H](O)[C@@H](C)[C@@H](O)[C@@H](C)[C@H](OC(C)=O)[C@@H]1C [RIFAPENTINE] | 0.02 µg/mL
C[n+]1cc2c3c(ccc2c2ccc4cc5c(cc4c21)OCO5)OCO3.[Cl-] [SANGUINARIUM CHLORIDE] | 24.5 µg/mL
O=[N+]([O-])c1cn2c(n1)OC[C@@H](OCc1ccc(-c3ccc(OC(F)(F)F)cc3)nc1)C2 [TBA-354] | 0.34 µg/mL
